Results: patent publication US20210403922A1 (CRISP-HR Therapeutics, Inc., priority 2019, published 2021)
“Also recorded” adds a separate entry of the source.

Tests used:
HBB genomic region = test: Sanger sequencing of the HBB genomic region after Cas9 and gRNA transfection; type: cell-based, Human; conditions: FIG. 6C / FIG. 13B, A549 cells, unmodified Cas9
A549 cells = test: Resazurin reduction assay, gRNA targeting exon 1 of HBB gene; type: cell-based, Human; conditions: FIG. 6B / FIG. 13A
Experimental: Cells are cultured in a 96-well plate and each well is seeded with about 2.5×10^4 cells. Each column of the 96-well plate receives a treatment with different plasmid respectively. […] The cells in the first column are transfected with plasmids encoding the first fusion protein as shown in FIG. 1; the cells in the second column with plasmids encoding the second fusion protein as shown in FIG. 1; the cells in the third column with plasmids encoding the third fusion protein as shown in FIG. 1; the cells in the fourth column with plasmids encoding the fourth fusion protein as shown in FIG. 1; the cells in the fifth column with plasmids encoding the fifth fusion protein as shown in FIG. 1; the cells in the sixth column with plasmids encoding the sixth fusion protein as shown in FIG. 1; the cells in the seventh column with plasmids encoding the seventh fusion protein as shown in FIG. 1; the cells in the eighth column with plasmids encoding the eighth fusion protein as shown in FIG. 1; and the cells in the ninth column with plasmids encoding the ninth fusion protein as shown in FIG. 1. […] The cells in the twelfth column are transfected with plasmids encoding GFPs. The cells in the […] are controls without any treatment.
Each of the plasmid constructs also contained a nucleotide sequence encoding a gRNA directed to recognize exon 1 of the human HBB gene. […] Three gRNA sequences as listed in Table 2 directed to recognize one of HBB gene's exon were used.
Toxicity was quantified using Resazurin as in Example 1.

[1] = tested on: phosphorylated 5′-double strand DNA ends; conditions: cited from earlier work

Question: For “HBB-G1: gRNA designed to target Exon 1 of the HBB gene, SEQ ID NO: 21 (guide GUAACGGCAGACUUCUCCUC; chemistry not given here)”, which “Cas9 cleavage and repair via NHEJ (INDELs) by Sanger sequencing” value (“Cas9 cleavage and repair via NHEJ” below) (HBB genomic region) is on record?
Answer: The value was “could not be detected”.

Question: Which “cellular toxicity of HBB gRNA guides with unmodified Cas9 (NT)” value (“cellular toxicity of HBB gRNA guides” for short) (A549 cells) does the source give for “HBB-G3: gRNA designed to target Exon 1 of the HBB gene, SEQ ID NO: 23 (guide GAGGUGAACGUGGAUGAAGU; chemistry not given here)” here?
Answer: The value was “higher toxicity than either HBB-G1 or HBB-G2”.

Question: What about the “cellular toxicity of HBB gRNA guides” value (A549 cells; listed as NT HBB-G3) of the same molecule?
Answer: The value was “smallest normalized fold change number”.

Question: And the “cellular toxicity of HBB gRNA guides” value (A549 cells; listed as gRNA G3)?
Answer: Its value is “highest cellular toxicity”.

Question: And the “Cas9 cleavage and repair via NHEJ” value (HBB genomic region)?
Answer: The value was “characteristic noise following Cas9 cleavage and repair via NHEJ pathways; also recorded: significant cleavage”.

Question: And the “Cas9 cleavage and repair via NHEJ” value (HBB genomic region; listed as Cas9 HBB-G3)?
Answer: The value was “generation of INDELs”.

B1: hExo1: human Exo1 exonuclease; N-terminal nuclease region SEQ ID NO: 1 (protein, listed as Homo sapiens)
chain: MGIQGLLQFIKEASEPIHVRKYKGQVVAVDTYCWLHKGAIACAEKLAKGEPTDRYVGFCMKFVNMLLSHGIKPILVFDGCTLPSKKEVERSRRERRQANLLKGKQLLREGKVSEARECFTRSINITHAMAHKVIKAARSQGVDCLVAPYEADAQLAYLNKAGIVQAIITEDSDLLAFGCKKVILKMDQFGNGLEIDQARLGMCRQLGDVFTEEKFRYMCILSGCDYLSSLRGIGLAKACKVLRLANNPDIVKVIKKIGHYLKMNITVPEDYINGFIRANNTFLYQLVFDPIKRKLIPLNAYEDDVDPETLSYAGQYVDDSIALQIALGNKDINTFEQIDDYNPDTAMPAHSRSHSWDDKTCQKSANVSSIWHRNYSPRPESGTVSDAPQLKE
Question: With B1 as the molecule, how does the “affinity for phosphorylated 5′-double strand DNA ends as for unphosphorylated” value [1] read?
Answer: The value was “roughly 10 ×”.
